Several values for one entry are separate records, joined by “and”; a condition that tells them apart may be missing. Equal values may be shown once. Marks after values point to notes of the source that are not given here.
How the values were obtained:
CB2 receptors = settings: cited from earlier work
CB1 = settings: cited from earlier work
RjOrl: Swiss mice [1] = settings: 44 mA; Klein et al., 2017; cited from earlier work
[2] = in vivo; cited from earlier work
DBA/2 mice [3] = settings: De Sarro et al., 2017; cited from earlier work
DBA/2 mice [4] = assay: mouse audiogenic seizure test; assay type: in vivo; settings: 180 mg/kg i.p., 30 min
Excerpt: The Audiogenic Seizure Test, which detects anticonvulsant activity, follows that described by Durmüller et al., 1993. Mice of the DBA/2 strain undergo an age-dependent sequence of convulsions (wild-running, clonic convulsion, tonic convulsion and respiratory arrest) within 60 seconds of exposure to a loud sound of 110-120 dB. The type of convulsions are consistent with aspects of generalised seizure in humans.
Male DBA/2 mice (3-4 weeks old) were supplied by Janvier Labs (53940 Le Genest-Saint-Isle, France); weight range 6-13 g at the beginning of the experiment. Animals were acclimatized to the Test Facility for 1 day after delivery and randomly housed in groups of 5 in macrolon cages on wood litter with free access to food and water.
(§1) The animal house was maintained under artificial lighting (12 hours) between 7:00 and 19:00 in a controlled ambient temperature of 22±2 °C and relative humidity between 30-70%.
Mice were individually transferred (at 3-5 minutes intervals) from the preparation room into an adjacent experimental room and body temperature was measured using a rectal thermometer (Digital Laboratory Thermometer: Model BAT-12). Immediately after, they were placed in a Plexiglas jar (Diameter=40 cm; Height=35 cm) mounted with an electric bell (110-120 dB, supplier Leroy Merlin, France). Upon activating the bell, the occurrences and latencies to wild running fits, clonic and tonic seizures were measured. Deaths were also recorded. The bell was activated until a tonic seizure occurred, or for a maximum of 60 seconds.
The experiment included groups of 10 mice per group. Experimenters were only partially blinded to treatment group as pre-treatment times were different.
The test substance was evaluated at various doses, administered i.p. (10 ml/kg) 15 or 30 minutes before the test, and compared with a vehicle control group.
Due to the number of animals tested, the experiment was divided in 2 sub-experiments on 2 separate days (7 days apart) with 5 mice per group in each sub-experiment.
Data were tested for normality using d'Agostino-Pearson Test and found to not follow a normal distribution. Statistical outliers were not identified or removed because no behavioural outliers were identified. Quantitative data (latencies) with the test substance were analyzed by comparing treated groups with vehicle control using Kruskal-Wallis test followed by Dunn's multiple comparisons test. Quantitative data with the reference substance were analyzed using Mann-Whitney U test. Quantal data (frequencies) were analyzed by comparing treated groups with vehicle control using Fisher's Exact Probability test.

C57BL/6J mice = assay: mouse maximal electroshock seizure threshold model (MEST); assay type: in vivo; settings: 150 mg/kg i.p., 30 min
Experimental: Vehicle=1:2:17 ethanol:Solutol® (Kolliphor® HS 15):saline: 1 mL of ethanol and 2 mL of solutol were warmed to 60 °C and 17 mL of 0.9% saline was added slowly. […]
Vehicle=0.5% HPMC and 0.1% Tween 80:0.5% HPMC and 0.1% Tween 80 in water.

RjOrl: Swiss mice [5] = assay: mouse 6 Hz (44 mA) model of partial seizures; assay type: in vivo; settings: 200 mg/kg i.p., 30 min
Excerpt: The 6 Hz (44 mA) model of partial seizures, which detects anticonvulsant activity, follows that described by Brown et al. 1953.
[…] A decrease in forelimb clonus score is indicative of protection from seizure and an anticonvulsive effect.
When conducted at a 44 mA stimulus intensity in mice, the 6 Hz test can differentiate compounds with potential for the treatment of focal-onset seizures that are often resistant to current anti-epileptic drugs.
Male RjOrl: Swiss mice (Janvier Labs, 53940 Le Genest-Saint-Isle, France), 5 weeks old, weighing 27-38 g at the beginning of the experiment. Animals were acclimatized to the Test Facility for at least 5 days after delivery and randomly housed in groups of 5 to 8 in macrolon cages on wood litter with free access to food and water.
as §1
Before transcorneal stimulation, a drop of tetracaine solution (1%) was applied on each eye of the mouse for local anesthesia. Between 1-10 minutes later and at the designated pre-treatment (see below), the mice were administered a rectangular current (44 mA, rectangular pulse: 0.2 ms pulse width, 3 s duration, (6 Hz) via corneal electrodes connected to a constant current shock generator (Ugo Basile: type 7801).
The results for the number of seizures as reflected by forelimb clonus were recorded immediately after current administration. Forelimb clonus was scored as absent (0=no forelimb clonus), mild (1=clonus with one forelimb) and strong (2=clonus with both forelimbs). The experimenters were blinded to the treatment. […]
The administration volume was 10 mL/kg.
Due to the number of animals tested, the experiment was divided in 2 sub-experiments on 2 consecutive days with equivalent numbers of mice per group and per sub-experiment.
Data were discrete values so considered to be non-normally distributed based on validation data, therefore non-parametric tests were utilized. Quantitative data (scores) with the test substance were analyzed by comparing test compound-treated groups with the 1:2:17 vehicle control using Kruskal-Wallis test with Dunn's multiple comparisons test when the Kruskal-Wallis test was significant. Quantitative data with the reference substance were analyzed using Mann-Whitney U test as compared to saline vehicle.

RjOrl: Swiss mice [6] = assay: mouse 6 Hz (44 mA) model of partial seizures; assay type: in vivo; settings: 200 mg/kg i.p., 30 min; vs vehicle (HPMC)

C=C(C)[C@@H]1CCC(C)=C[C@H]1c1c(O)cc(CCCCC)cc1O [CBD, cannabidiol]
binding to CB2 receptors (CB2 receptors): does not bind
binding to CB1 (CB1): does not bind
anticonvulsive effects in the 6 Hz test (RjOrl: Swiss mice [1]): exhibit anticonvulsive effects
psychotropic effects associated with cannabis [2]: does not induce the psychotropic effects

CCCC(CCC)C(=O)[O-].[Na+] [Sodium Valproate, sodium valproate, reference compound]
protection from clonic convulsions, tonic convulsions and respiratory arrest (DBA/2 mice [3]): protect DBA/2 mice from clonic convulsions, tonic convulsions and respiratory arrest
Clonic convulsion - presence, % (DBA/2 mice [4]): 30%
Tonic convulsion - presence, % (DBA/2 mice [4]): 0%
Wild running - presence, % (DBA/2 mice [4]): 30%
latencies to clonic convulsions (significance in words) (DBA/2 mice [4]): significantly increased
latencies to tonic convulsions (significance in words) (DBA/2 mice [4]): significantly increased
latencies to wild running (significance in words) (DBA/2 mice [4]): significantly increased
number of mice displaying clonic convulsions (significance in words) (DBA/2 mice [4]): significantly decreased
number of mice displaying tonic convulsions (significance in words) (DBA/2 mice [4]): significantly decreased
number of mice displaying wild running (significance in words) (DBA/2 mice [4]): significantly decreased
Clonic convulsion - presence, Total (DBA/2 mice [4]; number of mice, n = 10): 1
Tonic convulsion - presence, Total (DBA/2 mice [4]; number of mice, n = 10): 0
Wild running - presence, Total (DBA/2 mice [4]; number of mice, n = 10): 1
CC50 +/− SEM (C57BL/6J mice; 1:1:18 ethanol:Kolliphor EL:saline): 139.2 ± 2.1 mA
CC50 +/− SEM (C57BL/6J mice; 1:2:17 ethanol:Solutol:saline): 104.2 ± 1.0 mA
CC50 +/− SEM (C57BL/6J mice; study with HPMC vehicle): >300.0 mA and 215.8 ± 30.1 mA
Change from vehicle (CC50) (C57BL/6J mice; vs 1:1:18 ethanol:Kolliphor EL:saline vehicle): 457%^###
Change from vehicle (CC50) (C57BL/6J mice; vs 1:2:17 ethanol:Solutol:saline vehicle): 346%^###
Change from vehicle (CC50) (C57BL/6J mice; vs HPMC vehicle): >1043%*** and 714%***
Change from vehicle 1 (forelimb clonus) (RjOrl: Swiss mice [5]; vs vehicle 1 (saline)): −82%***
Change from vehicle 2 (forelimb clonus) (RjOrl: Swiss mice [5]; vs vehicle 2 (1:2:17 ethanol:Kolliphor HS15:saline)): −89%***
Change from vehicle (forelimb clonus) (RjOrl: Swiss mice [6]): −60%***
